According to publication PMC7904636 (International journal of pharmaceutics, 2021):

Assays:
[1] = Solubility in aqueous medium; assay type: physicochemical; settings: precipitation observed when DMSO solution was diluted with HBSS
A549 cells = settings: toxic at this concentration or higher, ref Zhu et al., 2020; cited from earlier work

- Solubility in aqueous medium [1]: very low solubility
SMILES: CC(C)(C)c1cc(C(C)(C)C)c(NC(=O)c2c[nH]c3ccccc3c2=O)cc1O [ivacaftor, Ivacaftor]
- Concentration toxic to A549 cells (A549 cells): ≥ 8000 ng/mL
